According to patent US20250049033A1, “PESTICIDALLY ACTIVE PYRIDAZINONE COMPOUNDS” (SYNGENTA CROP PROTECTION AG, priority 2021, published 2025):

Experiments:
Type in all cases: in vivo
Diabrotica balteata = assay: Activity against Diabrotica balteata (corn root worm), maize sprouts, L2 larvae; details: 96 h, application rate 200 ppm, 4 days after infestation, vs untreated, read-out: control in at least one of the two categories (mortality or growth inhibition)
Procedure: Example B2: Activity Against Diabrotica balteata (Corn Root Worm)
Maize sprouts placed onto an agar layer in 24-well microtiter plates were treated with aqueous test solutions prepared from 10′000 ppm DMSO stock solutions by spraying. After drying, the plates were infested with L2 larvae (6 to 10 per well). The samples were assessed for mortality and growth inhibition in comparison to untreated samples 4 days after infestation.

Myzus persicae [1] = assay: Activity against Myzus persicae (green peach aphid), intrinsic activity; details: 120 h, test rate 12 ppm, 5 days after infestation, sucrose solution through Parafilm
Excerpt: Example B6: Activity Against Myzus persicae (Green Peach Aphid). Intrinsic Activity
Test compounds prepared from 10′000 ppm DMSO stock solutions were applied by pipette into 24-well microtiter plates and mixed with sucrose solution. The plates were closed with a stretched Parafilm. A plastic stencil with 24 holes was placed onto the plate and infested pea seedlings were placed directly on the Parafilm. The infested plate was closed with a gel blotting paper and another plastic stencil and then turned upside down. The samples were assessed for mortality 5 days after infestation.

Spodoptera littoralis = assay: Activity against Spodoptera littoralis (Egyptian cotton leaf worm), cotton leaf discs, L1 larvae; details: foliar, 72 h, application rate 200 ppm, 3 days after infestation, vs untreated, read-out: control in at least one of the three categories (mortality, anti-feedant effect, or growth inhibition)
Procedure: Example B8: Activity Against Spodoptera littoralis (Egyptian Cotton Leaf Worm)
Cotton leaf discs were placed onto agar in 24-well microtiter plates and sprayed with aqueous test solutions prepared from 10′000 ppm DMSO stock solutions. After drying the leaf discs were infested with five L1 larvae. The samples were assessed for mortality, anti-feeding effect, and growth inhibition in comparison to untreated samples 3 days after infestation. Control of Spodoptera littoralis by a test sample is given when at least one of the categories mortality, anti-feedant effect, and growth inhibition is higher than the untreated sample.

Plutella xylostella = assay: Activity against Plutella xylostella (diamond back moth), artificial diet, eggs; details: 192 h, application rate 200 ppm, 8 days after infestation, vs untreated, read-out: control in at least one of the two categories (mortality or growth inhibition)
Procedure: Example B7: Activity Against Plutella xylostella (Diamond Back Moth)
24-well microtiter plates with artificial diet were treated with aqueous test solutions prepared from 10′000 ppm DMSO stock solutions by pipetting. After drying, Plutella eggs were pipetted through a plastic stencil onto a gel blotting paper and the plate was closed with it. The samples were assessed for mortality and growth inhibition in comparison to untreated samples 8 days after infestation. The following compounds gave an effect of at least 80% control in at least one of the two categories (mortality or growth inhibition) at an application rate of 200 ppm: P1, P2, P3, P4, P6, P7, P8, P9, P10, P11, P12, P13, P14, P15, P16, P17, P18, P19, P20, P21, P22, P23, P24, P25, P26, P27.

Myzus persicae [2] = assay: Activity against Myzus persicae (green peach aphid), feeding/contact activity; details: foliar, 144 h, application rate 200 ppm, 6 days after infestation, sunflower leaf discs, mixed ages
Procedure: Example B5: Activity Against Myzus persicae (Green Peach Aphid). Feeding/Contact Activity
Sunflower leaf discs were placed onto agar in a 24-well microtiter plate and sprayed with aqueous test solutions prepared from 10′000 ppm DMSO stock solutions. After drying, the leaf discs were infested with an aphid population of mixed ages. The samples were assessed for mortality 6 days after infestation.

Euschistus heros = assay: Activity against Euschistus heros (neotropical brown stink bug), soybean leaves, N2 nymphs; details: 120 h, application rate 200 ppm, 5 days after infestation, vs untreated, read-out: effect in at least one of the two categories (mortality or growth inhibition)
Procedure: Example B3: Activity Against Euschistus heros (Neotropical Brown Stink Bug)
Soybean leaves on agar in 24-well microtiter plates were sprayed with aqueous test solutions prepared from 10′000 ppm DMSO stock solutions. After drying the leaves were infested with N2 nymphs. The samples were assessed for mortality and growth inhibition in comparison to untreated samples 5 days after infestation.

Chilo suppressalis = assay: Activity against Chilo suppressalis (striped rice stemborer), artificial diet, L2 larvae; details: 144 h, application rate 200 ppm, 6 days after infestation, vs untreated, read-out: control in at least one of the three categories (mortality, anti-feedant effect, or growth inhibition)
Procedure: Example B1: Activity Against Chilo suppressalis (Striped Rice Stemborer)
24-well microtiter plates with artificial diet were treated with aqueous test solutions prepared from 10′000 ppm DMSO stock solutions by pipetting. After drying, the plates were infested with L2 larvae (6-8 per well). The samples were assessed for mortality, anti-feeding effect, and growth inhibition in comparison to untreated samples 6 days after infestation. Control of Chilo suppressalis by a test sample is given when at least one of the categories mortality, anti-feedant effect, and growth inhibition is higher than the untreated sample.

C[C@H](Nc1ncnc2c(C(F)(F)F)cc(C(F)(F)F)cc12)c1ncnn1-c1ccc(=O)n(C)n1 [P3, 6-[5-[(1S)-1-[[6,8-bis(trifluoromethyl)quinazolin-4-yl]amino]ethyl]-1,2,4-triazol-1-yl]-2-methyl-pyridazin-3-one]
≥ 80%: percent control (mortality or growth inhibition) at 200 ppm (Diabrotica balteata) | mortality at 12 ppm (Myzus persicae [1]) | percent control (mortality, anti-feedant effect or growth inhibition) at 200 ppm (Spodoptera littoralis) | percent control (mortality or growth inhibition) at 200 ppm (Plutella xylostella) | mortality at 200 ppm (Myzus persicae [2]) | percent effect (mortality or growth inhibition) at 200 ppm (Euschistus heros) | percent control (mortality, anti-feedant effect or growth inhibition) at 200 ppm (Chilo suppressalis)

C[C@H](Nc1ncnc2c(C(F)(F)F)cc(C(F)(F)F)cc12)c1ncnn1C1=NN(C)C(=O)CC1 [P7, 6-[5-[(1S)-1-[[6,8-bis(trifluoromethyl)quinazolin-4-yl]amino]ethyl]-1,2,4-triazol-1-yl]-2-methyl-4,5-dihydropyridazin-3-one]
≥ 80%: percent control (mortality or growth inhibition) at 200 ppm (Diabrotica balteata) | mortality at 12 ppm (Myzus persicae [1]) | percent control (mortality, anti-feedant effect or growth inhibition) at 200 ppm (Spodoptera littoralis) | percent control (mortality or growth inhibition) at 200 ppm (Plutella xylostella) | mortality at 200 ppm (Myzus persicae [2]) | percent effect (mortality or growth inhibition) at 200 ppm (Euschistus heros) | percent control (mortality, anti-feedant effect or growth inhibition) at 200 ppm (Chilo suppressalis)

CC(Nc1ncnc2c(C(F)(F)F)cc(C(F)(F)F)cc12)c1nccnc1-c1ccc(=O)n(C)n1 (stereo not drawn) [P8, 6-[3-[1-[[6,8-bis-(trifluoromethyl)-quinazolin-4-yl]amino]ethyl]pyr-azin-2-yl]-2-meth-yl-pyridazin-3-one]
≥ 80%: percent control (mortality or growth inhibition) at 200 ppm (Diabrotica balteata) | mortality at 12 ppm (Myzus persicae [1]) | percent control (mortality, anti-feedant effect or growth inhibition) at 200 ppm (Spodoptera littoralis) | percent control (mortality or growth inhibition) at 200 ppm (Plutella xylostella) | mortality at 200 ppm (Myzus persicae [2]) | percent effect (mortality or growth inhibition) at 200 ppm (Euschistus heros) | percent control (mortality, anti-feedant effect or growth inhibition) at 200 ppm (Chilo suppressalis)

C[C@H](Nc1ncnc2c(C(F)(F)F)cc(Cl)cc12)c1ncnn1C1=NN(C)C(=O)CC1 [P9, 6-[5-[(1S)-1-[[6-chloro-8-(trifluoro-methyl)quinazolin-4-yl]amino]ethyl]-1,2,4-triazol-1-yl]-2-methyl-4,5-di-hydropyridazin-3-one]
≥ 80%: percent control (mortality or growth inhibition) at 200 ppm (Diabrotica balteata) | mortality at 12 ppm (Myzus persicae [1]) | percent control (mortality, anti-feedant effect or growth inhibition) at 200 ppm (Spodoptera littoralis) | percent control (mortality or growth inhibition) at 200 ppm (Plutella xylostella) | mortality at 200 ppm (Myzus persicae [2]) | percent effect (mortality or growth inhibition) at 200 ppm (Euschistus heros) | percent control (mortality, anti-feedant effect or growth inhibition) at 200 ppm (Chilo suppressalis)

CC(Nc1ncnc2c(C(F)(F)F)cc(Cl)cc12)c1nccnc1-c1ccc(=O)n(C)n1 (stereo not drawn) [P10, 6-[3-[1-[[6-chloro-8-(trifluorometh-yl)quinazolin-4-yl]amino]ethyl]pyr-azin-2-yl]-2-methyl-pyridazin-3-one]
≥ 80%: percent control (mortality or growth inhibition) at 200 ppm (Diabrotica balteata) | mortality at 12 ppm (Myzus persicae [1]) | percent control (mortality, anti-feedant effect or growth inhibition) at 200 ppm (Spodoptera littoralis) | percent control (mortality or growth inhibition) at 200 ppm (Plutella xylostella) | mortality at 200 ppm (Myzus persicae [2]) | percent effect (mortality or growth inhibition) at 200 ppm (Euschistus heros) | percent control (mortality, anti-feedant effect or growth inhibition) at 200 ppm (Chilo suppressalis)

CC(c1nccnc1-c1ccc(=O)n(C)n1)N(C)c1ncnc2c(Cl)cc(C(F)(F)F)cc12 (stereo not drawn) [P12, 6-[3-[1-[[8-chloro-6-(trifluoromethyl)quinazolin-4-yl]-methyl-amino]ethyl]pyrazin-2-yl]-2-methyl-pyridazin-3-one]
≥ 80%: percent control (mortality or growth inhibition) at 200 ppm (Diabrotica balteata) | mortality at 12 ppm (Myzus persicae [1]) | percent control (mortality, anti-feedant effect or growth inhibition) at 200 ppm (Spodoptera littoralis) | percent control (mortality or growth inhibition) at 200 ppm (Plutella xylostella) | mortality at 200 ppm (Myzus persicae [2]) | percent effect (mortality or growth inhibition) at 200 ppm (Euschistus heros) | percent control (mortality, anti-feedant effect or growth inhibition) at 200 ppm (Chilo suppressalis)
